Assay results from patent US20240238232A1, “COMPOSITIONS AND METHODS FOR THE REDUCTION OR TREATMENT OF INSULIN RESISTANCE AND METABOLIC CONDITIONS” (AXCELLA HEALTH INC., priority 2018, published 2024).
Where “and” joins values, the source holds several entries; their conditions need not be identical. Equal values may be shown once.

Columns and labels:
STAM™ model (NASH) = assay: NAFLD activity score (HE staining, Kleiner criteria) in STAM mice, Example 2; format: in vivo, mouse; set-up: key to NAFLD Activity Score (NAS), mean / NAFLD Activity Score: raw data: NAS = steatosis (0-3) + inflammation (0-2) + ballooning (0-2); key to NAFLD Activity: Steatosis Score, mean / NAFLD Activity: Steatosis Score: raw data: steatosis grade 0-3 (Kleiner criteria); conditions: A-1 1500 mg/kg twice daily, OCA 30 mg/kg once daily
Protocol: Amino Acid Composition A-1 and Obeticholic acid (6α-ethyl-chenodeoxycholic acid; “OCA”) were tested for their ability to treat NASH in the STAM™ model (Stelic Institute & Co., Tokyo, Japan; Saito K. et al., 2015 Sci Rep 5:12466). Two additional groups of normal C57BL/6 mice fed standard chow and vehicle treated STAM™ mice were included as controls. All animals receiving treatment or vehicle were treated starting at 6 weeks until 9 weeks of age. Compounds were administered via oral gavage, with a dose volume of 10 ml/kg. Amino Acid Composition A-1 was administered twice daily at a dose of 1500 mg/kg, and OCA was administered once daily at a dose of 30 mg/kg.
STAM™ is a model for non-alcoholic steatohepatitis (NASH) and hepatocellular carcinoma (HCC), developed by SMC Laboratories, Inc. and created by the combination of chemical and dietary interventions using C57BL/6 mice (Saito K. et al., 2015 Sci Rep 5:12466). Mice are treated with a low dose of streptozotocin at birth and fed a high fat diet starting at 4 weeks. Evidence of fatty liver is present by 5 weeks, followed by NASH by 7 weeks and fibrosis by 9 weeks.
NASH was induced in 53 male mice by a single subcutaneous injection of 200 μg streptozotocin (STZ, Sigma-Aldrich, USA) solution 2 days after birth and feeding with high fat diet (HFD, 57 kcal % fat, Cat #HFD32, CLEA Japan, Japan) after 4 weeks of age.
Amino Acid Composition A-1, OCA and Vehicle (described below) were administered by oral route in a volume of 10 mL/kg. Amino Acid Composition A-1 was solubilized in deionized water to 150 mg/ml (10 X). OCA (Advanced ChemBlocks Inc.) was resuspended in 0.5% methycellulose in water to 3 mg/ml (10 X). Amino Acid Composition A-1 was administered at a dose of 1500 mg/kg twice daily (9 am and 7 pm). OCA was administered at a dose of 30 mg/kg once daily (9 am).
Liver samples from mice in Group 2 (Vehicle), 3 (Amino Acid Composition A-1) and 4 (OCA) were used for the following assays. For HE staining, sections were cut from paraffin blocks of liver tissue prefixed in Bouin's solution and stained with Lillie-Mayer's Hematoxylin (Muto Pure Chemicals Co., Ltd., Japan) and eosin solution (Wako Pure Chemical Industries). NAFLD Activity score (NAS) was calculated according to the criteria of Kleiner (Kleiner D. E. et al., Hepatology, 2005; 41:1313).
The non-alcoholic fatty liver disease (NAFLD) activity score was assessed via histological analysis and grading of H&E stained liver sections from each animal. This score is the sum of three individual scores that grade the degree of steatosis (0-3), inflammation (0-2), and hepatocyte ballooning (0-2). All tissues were graded using the scoring criteria of Kleiner et al. (Kleiner et al. Hepatology. 2005; 41(6): 1313-21). Data are mean±standard deviation (stdev). […] Both Amino Acid Composition A-1 and OCA were statistically different from vehicle for NAFLD Activity Score when compared using Dunnett's multiple comparisons test (Amino Acid Composition A-1 p=0.0001, OCA p=0.0001).

FATZO mouse model = assay: Liver Oil Red O staining area in FATZO mice on WDF, Example 5; format: in vivo; conditions: oral, 4 weeks, LIVRQNAC + G 3885 mg/kg, LRQNAC 2469 mg/kg, OCA 30 mg/kg/day
Description: NASH was induced in 60 male FATZO mice by a western diet (Research Diet #D12079B; fat 40% kcal, protein 17% kcal, carbohydrate 43% kcal) supplemented with 500 fructose in the drinking water (WDF) during a 16 week induction phase. Diets and water were available ad libitum. Littermate control male FATZO mice fed with a control diet (n=6, Purina #5008; fat 17% kcal, protein 27% kcal, carbohydrate 56% kcal) and sterile water were set up for control purpose. Mice were housed in plastic cages with microisolator. Sterilized bedding was replaced once a week. Mice were housed three per cage and maintained on a twelve hour light cycle throughout study duration. Room temperature was monitored daily and maintained at 22-25° C. Body weight was recorded every week during the induction phase. […]
[…], […]+G, LRQNAC, OCA and Vehicle were administered by oral gavage at a volume of 10 mL/kg throughout the study. Dosages were calculated by daily body weight. […]
Aperio Automatic Image Quantitation was employed to quantify positive pixels of immunohistochemical staining, Oil-Red 0, and Sirius Red staining. The Positive Pixel Count algorithm was used to quantify the percentage of a specific stain present in a scanned slide image. A range of color (range of hues and saturation) and three intensity ranges (weak, positive, and strong) were masked and evaluated. […]

[1] = STAM mice, oral, 6 to 9 weeks of age

CC[C@H]1[C@@H](O)[C@@H]2[C@H](CC[C@]3(C)[C@@H]([C@H](C)CCC(=O)O)CC[C@@H]23)[C@@]2(C)CC[C@@H](O)C[C@@H]12 [OCA, 6α-ethyl-chenodeoxycholic acid]
NAFLD Activity Score (NAS), mean (STAM™ model (NASH); [1]): 2.9+/−0.74 and 2.9 | NAFLD Activity: Ballooning Score, mean (STAM™ model (NASH); [1]): 0.3+−0.48 and 0.3 | NAFLD Activity: Inflammation Score, mean (STAM™ model (NASH); [1]): 1.8 | NAFLD Activity: Steatosis Score, mean (STAM™ model (NASH); [1]): 0.8 | NAFLD Activity Score: raw data (STAM™ model (NASH); individual STAM mice): 2 (3×) and 4 (2×) and 3 (5×) | NAFLD Activity: Ballooning Score: raw data (STAM™ model (NASH); individual STAM mice): 0 (7×) and 1 (3×) | NAFLD Activity: Inflammation Score: raw data (STAM™ model (NASH); individual STAM mice): 1 (4×) and 2 (4×) and 3 (2×) | NAFLD Activity: Steatosis Score: raw data (STAM™ model (NASH); individual STAM mice): 1 (8×) and 0 (2×) | Oil Red O (staining area) (FATZO mouse model): 0.24 ± 0.021
